According to patent US6841682B2, “Heterocycles useful in the treatment of benign prostatic hyperplasia” (Janseen Pharmaceutica N.V., priority 1997, dated 2005):

How the values were obtained:
α1a-AR = target: T1, α1a-AR (Homo sapiens, UniProt P35348); assay: radioligand ([125I]-HEAT) receptor binding assay, COS cell membranes, α1a-AR; conditions: Tables A-J; [125I]-HEAT 50 pM, COS membranes; read-out: α1a IC50
T1 construct: expressed in transfected cells; host or cells: COS cells (pcDNA3 vector, DEAE-dextran transient transfection); membrane preparation
T1 sequence (P35348 1-466): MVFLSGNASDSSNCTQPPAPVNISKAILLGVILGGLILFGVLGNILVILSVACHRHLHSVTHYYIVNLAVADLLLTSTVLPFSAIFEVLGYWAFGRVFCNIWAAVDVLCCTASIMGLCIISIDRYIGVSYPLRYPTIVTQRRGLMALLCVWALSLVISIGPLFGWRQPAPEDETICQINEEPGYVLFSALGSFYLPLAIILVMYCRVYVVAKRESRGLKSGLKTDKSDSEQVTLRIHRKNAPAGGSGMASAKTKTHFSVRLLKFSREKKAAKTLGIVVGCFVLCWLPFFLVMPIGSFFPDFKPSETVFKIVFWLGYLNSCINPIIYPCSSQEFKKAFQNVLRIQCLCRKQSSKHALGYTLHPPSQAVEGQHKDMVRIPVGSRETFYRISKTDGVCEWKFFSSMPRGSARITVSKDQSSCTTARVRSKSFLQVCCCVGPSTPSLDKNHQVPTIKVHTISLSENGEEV
Source text: The first assay tested the ability of compounds of Formula I to bind to membrane bound receptors α1a-AR, α1b-AR and α1d-AR.
The DNA sequences of the three cloned human α1-AR subtypes have been published. […] We used published DNA sequence information to design-primers for use in RT-PCR amplification of each subtype to obtain cloned cDNAs. Human poly A+ RNA was obtained from commercially available sources and included hippocampus and prostate samples, sources which have been cited in the literature. For the primary screen a radio ligand binding assay was used which employed membrane preparations from cells expressing the individual cloned receptor cDNAs.
Each α1 receptor subtype was cloned from poly A+ RNA by the standard method of reverse transcription-polymerase chain reaction (RT-PCR). The following sources of polyA+ RNA were used for the cloning of the al receptor subtypes: α1a-AR, human hippocampus and prostate, α1b-AR, human hippocampus, α1d-AR, human hippocampus. The resulting cDNAs were cloned into the pcDNA3 mammalian expression vector (Invitrogen Corp., San Diego Calif.). Each DNA was sequenced for verification and to detect any possible mutations introduced during the amplification process. Any deviation in sequence from the published consensus for each receptor subtype was corrected by site-directed mutagenesis.
The three α1-AR subtypes (a, b, d) were transfected into COS cells using a standard DEAE-dextran procedure with a chloroquine shock. In this procedure, each tissue culture dish (100 mm) was inoculated with 3.5×10^6 cells and transfected with 10 μg of DNA. Approximately 72 hours post-transfection, the cells were harvested and COS membranes were prepared. Transfected COS cells from 25 plates (100 mm) were scraped and suspended in 15 mL of TE buffer (50 mM Tris-HCl, 5 mM EDTA, pH7.4). The suspension was disrupted with a homogenizer. It was then centrifuged at 1000×g for 10 minutes at 4° C. The supernatant was centrifuged at 34,500×g for 20 minutes at 4° C. The pellet was resuspended in 5 mL TNE buffer (50 mM Tris-HCl, 5 mM EDTA, 150 mM NaCl, pH7.4). The resulting membrane preparation was aliquoted and stored at −70° C. The protein concentration was determined following membrane solubilization with TritonX-100.
The ability of each compound to bind to each of the α1-AR subtypes was assessed in a receptor binding assay. […] The plate was incubated for 1 hour at room temperature and the reaction mixtures were filtered through a Packard GF/C Unifilter filter plate. The filter plate was dried for 1 hour in a vacuum oven. Scintillation fluid ([…]) was added to each well, and the filter plate was counted in a Packard Topcount scintillation counter. Data was analyzed using GraphPad Prism software.

rat prostatic tissue = assay: norepinephrine-induced contractile response of rat prostatic tissue; type: cell-based; conditions: rat prostate strips, 32° C., pH 7.4, read-out: IC50, inhibition of contractile response in prostate tissue
Source text: The contractile responses of rat prostatic tissue and rat aorta tissues were examined in the presence and absence of antagonist compounds. As an indication of the selectivity of antagonism, test compound effects on vascular smooth muscle contractility (α1b-AR and α1d-AR) were compared to the effects on prostatic smooth muscle (α1a-AR). Strips of prostatic tissue and aortic rings were obtained from Long Evans derived male rats weighing 275 grams and sacrificed by cervical dislocation. The prostate tissue was placed under 1 gram tension in a 10 ml bath containing phosphate buffered saline pH 7.4 at 32° C. and isometric tension was measured with force transducers. The aortic tissue was placed under 2 grams tension in a 10 ml bath containing phosphate buffered saline pH 7.4 at 37° C. The ability of test compound to reduce the norepinephrine-induced contractile response by 50% (IC50) was determined.

CC(C)Oc1ccccc1N1CCN(Cc2cc(CN3CCCCC3=O)n[nH]2)CC1 [Compound 3]
IC50 (α1a-AR): 2.1 nM
IC50 (rat prostatic tissue): 1300 nM

CC(C)Oc1ccccc1N1CCN(Cc2ncc(CN3CCCCC3=O)s2)CC1 [Compound 16]
IC50 (α1a-AR): 1.88 nM
IC50 (rat prostatic tissue): 380 nM
